Reference: patent US6506742B2, “Soluble contraceptive liquid formulation” (Ortho-McNeil Pharmaceutical, Inc., priority 1999, dated 2003)

Assay: Stability study of oral contraceptive liquid formulation stored at room temperature, amount of contraceptive in solution
Type: physicochemical
Details: solubilized according to the process (EtOH/PEG 400/water)
Excerpt: A formulation as prepared in Examples 1 or 2, as shown in Table 3 were stored in a container at room temperature and tested periodically for the amount of contraceptive in solution. The reported figure of the contraceptives in solution is in percent of label claim.

Compound	solubility and stability in water
C#C[C@]1(OC(C)=O)CC[C@H]2[C@@H]3CCC4=CC(=NO)CC[C@@H]4[C@H]3CC[C@@]21CC (mixture of isomers) [NGM, Norgestimate]	greatly increased
C#C[C@]1(O)CC[C@H]2[C@@H]3CCc4cc(O)ccc4[C@H]3CC[C@@]21C [EE, ethinyl estradiol]	greatly increased
